Source: patent US8039474B2, “2,3,4,9-tetrahydro-1H-carbazole derivatives as CRTH2 receptor antagonists” (Actelion Pharmaceutical Ltd., priority 2004, dated 2011)

Target: T1, hCRTH2 receptor (Homo sapiens, UniProt Q9Y5Y4)
T1 construct: expressed in transfected cells
T1 sequence (Q9Y5Y4 1-395): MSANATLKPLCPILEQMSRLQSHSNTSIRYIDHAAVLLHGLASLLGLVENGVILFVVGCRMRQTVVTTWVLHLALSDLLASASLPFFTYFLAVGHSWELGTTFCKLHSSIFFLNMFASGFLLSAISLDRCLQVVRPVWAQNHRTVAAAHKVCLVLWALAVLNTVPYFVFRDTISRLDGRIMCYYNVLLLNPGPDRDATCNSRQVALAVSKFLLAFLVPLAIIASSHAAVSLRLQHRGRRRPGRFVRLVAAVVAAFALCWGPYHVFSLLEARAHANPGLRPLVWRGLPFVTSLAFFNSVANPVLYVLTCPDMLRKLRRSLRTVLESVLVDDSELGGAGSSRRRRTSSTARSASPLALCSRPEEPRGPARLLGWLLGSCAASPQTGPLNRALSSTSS
Assay: CRTH2 membranes radioligand binding assay ({3H}-PGD2)
Conditions: {3H}-PGD2 2.5 nM; membranes of HEK 293 cells expressing recombinant hCRTH2; read-out: hCRTH2 BDG IC50
Procedure: Cells are detached from culture plates in 5 ml buffer A (5 mM Tris, 1 mM MgCl2×6 H2O, 0.1 mM PMSF, 0.1 mM phenanthroline) per plate using a police rubber and transferred into centrifugation tubes and frozen at −80° C. After thawing, the cells are centrifuged at 500 g for 5 min and then resuspended in buffer A. Cells are then fragmented by homogenization with a Polytron homogenizer for 30 s. The membrane fragments are centrifuged at 3000 g for 40 min and resuspended in membranes in buffer B (50 mM Tris, 25 mM MgCl2, 250 mM saccharose, pH 7.4) and aliquots are stored frozen.
Binding assay is performed in a total volume of 250 μl. […] For unspecific binding, PGD2 is added to the reaction mixture at 1 μM final concentration. This binding assay mix is incubated at rt for 90 min and then filtered through a GF/C filter plate. The filter is washed three times with ice cold binding buffer. Then, 40 μl per well Microscint-40 (Packard) are added and the bound radioactivity is quantified by means of Topcount (Packard).

| Compound | IC50 [µM] |
| --- | --- |
| CC1(C(=O)N(Cc2ccccc2)c2ccccc2)CCc2c(c3ccccc3n2CC(=O)O)C1 (racemic) [Example B-04, (±)-[3-(Benzyl-phenyl-carbamoyl)-3-methyl-1,2,3,4-tetrahydro-carbazol-9-yl]-acetic acid] | 0.003 |
| CN(C(=O)C1(C)CCc2c(c3ccccc3n2CC(=O)O)C1)c1cccc(Cl)c1 (racemic) [Example B-10, (±)-{3-[(3-Chloro-phenyl)-methyl-carbamoyl]-3-methyl-1,2,3,4-tetrahydro-carbazol-9-yl}-acetic acid] | 0.001 |
| CC1(C(=O)NCc2cc(F)cc(F)c2)CCc2c(c3ccccc3n2CC(=O)O)C1 (racemic) [Example B-68, (±)-[3-(3,5-Difluoro-benzylcarbamoyl)-3-methyl-1,2,3,4-tetrahydro-carbazol-9-yl]-acetic acid] | 0.019 |
| CC(C)N(Cc1ccccc1)C(=O)C1CCc2c(c3cc(F)ccc3n2CC(=O)O)C1 (single isomer, unassigned; (+)) [(+)-[3-(Benzyl-isopropyl-carbamoyl)-6-fluoro-1,2,3,4-tetrahydro-carbazol-9-yl]-acetic acid] | 0.003 |
| CC(C)N(Cc1ccccc1)C(=O)C1CCc2c(c3cc(F)ccc3n2CC(=O)O)C1 (single isomer, unassigned; (-)) [(−)-[3-(Benzyl-isopropyl-carbamoyl)-6-fluoro-1,2,3,4-tetrahydro-carbazol-9-yl]-acetic acid] | 0.067 |

Results, then the compound that gave them:

| IC50 [µM] | Compound |
| --- | --- |
| 0.002 | O=C(O)Cn1c2c(c3ccccc31)CC(C(=O)N1CCc3ccccc31)CC2 (racemic) [Example A-39, (±)-[3-(2,3-Dihydro-indole-1-carbonyl)-1,2,3,4-tetrahydro-carbazol-9-yl]-acetic acid] |
| 0.003 | CN(C(=O)C1(C)CCc2c(c3ccccc3n2CC(=O)O)C1)c1ccccc1 (racemic) [Example B-01, (±)-[3-Methyl-3-(methyl-phenyl-carbamoyl)-1,2,3,4-tetrahydro-carbazol-9-yl]-acetic acid] |
| 0.002 | CC1(C(=O)N(Cc2ccsc2)c2ccccc2)CCc2c(c3ccccc3n2CC(=O)O)C1 (racemic) [Example B-07, (±)-[3-Methyl-3-(phenyl-thiophen-3-ylmethyl-carbamoyl)-1,2,3,4-tetrahydro-carbazol-9-yl]-acetic acid] |
| 0.022 | CCCC1(C(=O)Nc2cccc(F)c2)CCc2c(c3ccccc3n2CC(=O)O)C1 (racemic) [Example B-32, (±)-[3-(3-Fluoro-phenylcarbamoyl)-3-propyl-1,2,3,4-tetrahydro-carbazol-9-yl]-acetic acid] |

Target: T1, hCRTH2 receptor
Assay: Intracellular calcium mobilization assay (FLIPR), PGD2 challenge
Assay type: cell-based
Conditions: HEK-293 cells stably expressing hCRTH2; 10 nM prostaglandin D2 as agonist
Procedure: A functional assay with cells expressing the human CRTH2 receptor may be used to detect changes in the levels of intracellular calcium concentration following compound treatment. After addition of the compound the cells are challenged with PGD2. In a Fluorescent Imaging Plate Reader (FLIPR™, Molecular Devices, Sunnyvale, Calif.) fluorescence emission is recorded during both additions, emission peak values above base level after PGD2 addition were exported, normalized to low controls (no PGD2) and high controls (no active compound). The relative values of the remaining activity were used to determine IC50 values by curve fitting the data to a single site to a four-parameter logistic sigmoid dose response curve of the equation (A+((B−A)/(1+((C/x)^D)))).
Cells (HEK-293), stably expressing the hCRTH2 receptor under the control of the cytomegalovirus promotor from a single insertion of the expression vector pcDNA5 (Invitrogen), are grown to confluency in DMEM (low glucose, Gibco) medium supplemented with 10% fetal calf serum (both Bioconcept, Switzerland) under standard mammalian cell culture conditions (37° C. in a humidified atmosphere of 5% CO2). Cells are detached from culture dishes using a dissociation buffer (0.02% EDTA in PBS, Gibco) for 1 min, and collected by centrifugation at 200 g at rt for 5 min in assay buffer (equal parts of Hank's BSS (HBSS, Bioconcept) and DMEM (low glucose, without phenol red, Gibco)). After incubation for 45 min (37° C. and 5% CO2) in the presence of 1 μM Fluo-4 and 0.04% Pluronic F-127 (both Molecular Probes), 20 mM HEPES (Gibco) in assay buffer, the cells are washed with and resuspended in assay buffer, then seeded onto 384-well FLIPR assay plates (Greiner) at 50,000 cells in 66 μl per well, and sedimented by centrifugation.
Stock solutions of test compounds are made up at a concentration of 10 mM in DMSO, and serially diluted in assay buffer to concentrations required for inhibition dose response curves. Prostaglandin D2 (Biomol, Plymouth Meeting, Pa.) is used as an agonist.
A FLIPR384 instrument (Molecular Devices) is operated according to the manufacturer's standard instructions, adding 4 μl of test compound dissolved at 10 mM in DMSO and diluted prior to the experiment in assay buffer to obtain the desired final concentration. 10 μl of 80 nM prostaglandin D2 (Biomol, Plymouth Meeting, Pa.) in assay buffer, supplemented with 0.8% bovine serum albumin (fatty acid content<0.02%, Sigma), is then added to obtain a final concentration of 10 nM and 0.1%, respectively. Changes in fluorescence are monitored before and after the addition of test compounds at λex=488 nm and λem=540 nm. Emission peak values above base level after prostaglandin D2 addition are exported after base line subtraction. Values are normalized to high-level control (no test compound added) after subtraction of base line value (no prostaglandin D2 added). The program XL1fit 3.0 (IDBS) is used to fit the data to a single site dose response curve of the equation (A+((B−A)/(1+((C/x)^D)))) and to calculate the IC50 values.

| Compound | IC50 [µM] |
| --- | --- |
| CN(C(=O)C1CCc2c(c3cc([N+](=O)[O-])ccc3n2CC(=O)O)C1)c1ccccc1 (racemic) [(±)-[3-(Methyl-phenyl-carbamoyl)-6-nitro-1,2,3,4-tetrahydro-carbazol-9-yl]-acetic acid] | 0.011 |
| CN(C(=O)C1CCc2c(c3ccccc3n2CC(=O)O)C1)c1ccccc1C(F)(F)F (racemic) [Example A-37, (±)-{3-[Methyl-(2-trifluoromethyl-phenyl)-carbamoyl]-1,2,3,4-tetrahydro-carbazol-9-yl}-acetic acid] | 0.045 |
| CN(C(=O)C1CCc2c(c3ccccc3n2CC(=O)O)C1)C(c1ccccc1)c1ccccc1 (racemic) [Example A-42, (±)-[3-(Benzhydryl-methyl-carbamoyl)-1,2,3,4-tetrahydro-carbazol-9-yl]-acetic acid] | 0.017 |
| CN(C(=O)C1(C)CCc2c(c3ccccc3n2CC(=O)O)C1)c1cccc(Cl)c1 (racemic) [Example B-10, (±)-{3-[(3-Chloro-phenyl)-methyl-carbamoyl]-3-methyl-1,2,3,4-tetrahydro-carbazol-9-yl}-acetic acid] | 0.02 |
| O=C(O)Cn1c2c(c3cc(F)ccc31)CC(C(=O)N1CCCCCCC1)CC2 (single isomer, unassigned; (+)) [(+)-[3-(Azocane-1-carbonyl)-6-fluoro-1,2,3,4-tetrahydro-carbazol-9-yl]-acetic acid] | 0.046 |
| O=C(O)Cn1c2c(c3cc(F)ccc31)CC(C(=O)N1CCN(c3ccc(F)cc3)CC1)CC2 (single isomer, unassigned; (-)) [(−)-{6-Fluoro-3-[4-(4-fluoro-phenyl)-piperazine-1-carbonyl]-1,2,3,4-tetrahydro-carbazol-9-yl}-acetic acid] | 0.599 |

Other lines, results leading:

| IC50 [µM] | Compound |
| --- | --- |
| 0.013 | CN(C(=O)C1(C)CCc2c(c3ccccc3n2CC(=O)O)C1)c1ccccc1 (racemic) [Example B-01, (±)-[3-Methyl-3-(methyl-phenyl-carbamoyl)-1,2,3,4-tetrahydro-carbazol-9-yl]-acetic acid] |
| 0.067 | CCC1(C(=O)N2CCc3ccccc32)CCc2c(c3ccccc3n2CC(=O)O)C1 (racemic) [Example B-22, (±)-[3-(2,3-Dihydro-indole-1-carbonyl)-3-ethyl-1,2,3,4-tetrahydro-carbazol-9-yl]-acetic acid] |
| 0.036 | CC1(C(=O)N(CCC#N)Cc2ccccc2)CCc2c(c3ccccc3n2CC(=O)O)C1 (racemic) [Example B-56, (±)-{3-[Benzyl-(2-cyano-ethyl)-carbamoyl]-3-methyl-1,2,3,4-tetrahydro-carbazol-9-yl}-acetic acid] |
| 0.028 | O=C(O)Cn1c2c(c3cc(F)ccc31)CC(C(=O)N1CCc3ccccc31)CC2 (single isomer, unassigned; (+)) [(+)-[3-(2,3-Dihydro-indole-1-carbonyl)-6-fluoro-1,2,3,4-tetrahydro-carbazol-9-yl]-acetic acid] |
